# Key:
# [1] = test system: Oligodendrocyte progenitor cells (OPCs); assay: In vitro OPC differentiation assay, GPR17 expression (immunocytochemistry); conditions: 3 μM (10× concentration, final 0.3 μM); 72 hours; fold change over vehicle
# [2] = biological target: PDGFRα (Homo sapiens (Human), UniProt P16234); assay: PDGFRα kinase enzyme assay (Promega PDGFRα Kinase Enzyme System, ADP-Glo); type: biochemical; conditions: 11-point dose response, 10,000 nM to 0.169 nM; 150 uM ATP; BLQ = below limit of quantitation; read-out: IC50 Values on PDGFRα Kinase Inhibition, IC50
# Summary of the method: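 Purified PDGFRα protein (20 ng) reacted with test compound per the Promega kinase system protocol. ADP formed was measured by ADP-Glo luminescence against a standard curve, giving IC50.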
# Chain of PDGFRα (P16234 24-1089): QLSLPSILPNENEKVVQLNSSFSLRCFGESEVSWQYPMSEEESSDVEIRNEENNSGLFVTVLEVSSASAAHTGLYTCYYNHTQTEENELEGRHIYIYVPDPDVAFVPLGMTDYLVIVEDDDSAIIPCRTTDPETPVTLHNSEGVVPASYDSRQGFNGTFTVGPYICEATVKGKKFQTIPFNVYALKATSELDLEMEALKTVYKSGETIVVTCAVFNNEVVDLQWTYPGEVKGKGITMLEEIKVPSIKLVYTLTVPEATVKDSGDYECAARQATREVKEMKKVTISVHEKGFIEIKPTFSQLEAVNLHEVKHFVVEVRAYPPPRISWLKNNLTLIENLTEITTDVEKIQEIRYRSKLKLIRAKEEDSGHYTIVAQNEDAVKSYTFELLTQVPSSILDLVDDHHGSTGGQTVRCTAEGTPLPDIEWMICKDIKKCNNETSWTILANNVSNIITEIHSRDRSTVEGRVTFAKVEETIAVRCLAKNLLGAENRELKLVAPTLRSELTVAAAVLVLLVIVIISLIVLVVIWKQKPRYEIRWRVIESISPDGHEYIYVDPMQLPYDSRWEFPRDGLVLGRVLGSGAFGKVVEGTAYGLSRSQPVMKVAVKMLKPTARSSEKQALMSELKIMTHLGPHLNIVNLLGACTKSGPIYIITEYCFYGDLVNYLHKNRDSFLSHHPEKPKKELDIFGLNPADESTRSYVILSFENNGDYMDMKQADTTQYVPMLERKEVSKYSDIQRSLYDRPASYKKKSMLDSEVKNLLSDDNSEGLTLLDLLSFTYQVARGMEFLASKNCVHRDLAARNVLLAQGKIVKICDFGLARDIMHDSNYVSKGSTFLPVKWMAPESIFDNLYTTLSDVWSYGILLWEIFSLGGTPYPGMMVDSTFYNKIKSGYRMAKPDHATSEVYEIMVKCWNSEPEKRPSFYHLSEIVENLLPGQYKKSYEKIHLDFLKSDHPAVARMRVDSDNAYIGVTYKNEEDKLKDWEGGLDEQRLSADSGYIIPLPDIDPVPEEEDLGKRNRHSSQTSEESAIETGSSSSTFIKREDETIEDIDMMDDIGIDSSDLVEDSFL
GPR17 Fold Induction (Over Vehicle; 3 μM) [1],IC50 [2],SMILES
5.57,1.23 µM,"Cn1cc(-c2ccc3c(N4CCN(C(=O)OCc5ncc(Cl)s5)CC4)cnn3c2)cn1 [Compound 195, (5-chlorothiazol-2-yl)methyl 4-(6-(1-methyl-1H-pyrazol-4-yl)pyrazolo[1,5-a]pyridin-3-yl)piperazine-1-carboxylate]"
3.05,6.18 µM,"Cn1cc(-c2ccc3c(N4CCN(C(=O)OCc5ccccc5C(N)=O)CC4)cnn3c2)cn1 [Compound 280, 2-carbamoylbenzyl 4-(6-(1-methyl-1H-pyrazol-4-yl)pyrazolo[1,5-a]pyridin-3-yl)piperazine-1-carboxylate]"
9.58,0.00596 µM,"Cn1cc(-c2ccc3c(N4CCN(S(=O)(=O)NCc5ccc(C(F)(F)F)cc5)CC4)cnn3c2)cn1 [Compound 294, 4-(6-(1-methyl-1H-pyrazol-4-yl)pyrazolo[1,5-a]pyridin-3-yl)-N-(4-(trifluoromethyl)benzyl)piperazine-1-sulfonamide]"
4.08,1.24 µM,"Cc1cnc(COC(=O)N2CCN(c3cnn4cc(-c5cnn(C)c5)ccc34)CC2)o1 [Compound 199, (5-methyloxazol-2-yl)methyl 4-(6-(1-methyl-1H-pyrazol-4-yl)pyrazolo[1,5-a]pyridin-3-yl)piperazine-1-carboxylate]"
2.80,9.68 µM,"Cn1cc(-c2ccc3c(N4CCN(S(=O)(=O)CCc5ccccc5)CC4)cnn3c2)cn1 [Compound 160, 6-(1-methyl-1H-pyrazol-4-yl)-3-(4-(phenethylsulfonyl)piperazin-1-yl)pyrazolo[1,5-a]pyridine]"
7.29,5.25 µM,"C[C@@H](NS(=O)(=O)N1CCN(c2cnn3cc(-c4cnn(C)c4)ccc23)CC1)c1ccc(Cl)cc1 [Compound 293, (R)-N-(1-(4-chlorophenyl)ethyl)-4-(6-(1-methyl-1H-pyrazol-4-yl)pyrazolo[1,5-a]pyridin-3-yl)piperazine-1-sulfonamide]"
0.97,> 10 µM,"COc1ccc(CN2CCN(c3cnn4cc(-c5cnn(C)c5)ccc34)CC2)cc1 [Compound 253, 3-[4-(4-methoxybenzyl)piperazin-1-yl]-6-(1-methyl-1H-pyrazol-4-yl)pyrazolo[1,5-a]pyridine]"
3.72,6.7 µM,"Cn1cc(-c2ccc3c(N4CCN(c5cnc(Cc6ccccc6)nc5)CC4)cnn3c2)cn1 [Compound 70, 3-[4-(2-benzylpyrimidin-5-yl)piperazin-1-yl]-6-(1-methyl-1H-pyrazol-4-yl)pyrazolo[1,5-a]pyridine]"
1.26,> 10 µM,"Cn1cc(-c2ccc3c(N4CCN(c5ncc(S(=O)(=O)c6ccccc6)cn5)CC4)cnn3c2)cn1 [Compound 186, 6-(1-methyl-1H-pyrazol-4-yl)-3-(4-(5-(phenylsulfonyl)pyrimidin-2-yl)piperazin-1-yl)pyrazolo[1,5-a]pyridine]"
0.68,> 10 µM,"Cn1cc(-c2ccc3c(N4CCNCC4)cnn3c2)cn1 [Compound 12, 1-[6-(1-methylpyrazol-4-yl)pyrazolo[1,5-a]pyridin-3-yl]piperazine]"

# More lines, now with the values behind:
SMILES,GPR17 Fold Induction (Over Vehicle; 3 μM) [1],IC50 [2]
"CN(Cc1ccccc1)C(=O)C1CCC(c2cnn3cc(-c4cnn(C)c4)ccc23)CC1 (stereo not shown) [Compound 139, N-benzyl-N-methyl-4-(6-(1-methyl-1H-pyrazol-4-yl)pyrazolo[1,5-a]pyridin-3-yl)cyclohexane-1-carboxamide]",3.87,8.81 µM
CC(C)(C)OC(=O)N1CCCN(c2cnc3nc(-c4cccnc4)ccn23)CC1 [Compound 106],0.72,> 10 µM
"CC(C)(C)OC(=O)N1CCN(c2cnn3cc(-c4cccc(F)c4)ccc23)CC1 [Compound 208, tert-butyl 4-(6-(3-fluorophenyl)pyrazolo[1,5-a]pyridin-3-yl)piperazine-1-carboxylate]",1.22,> 10 µM
"CN(CCN(C)c1cnc2cc(-c3cnn(C)c3)ncn12)C(=O)OC(C)(C)C [Compound 95, tert-butyl methyl(2-(methyl(7-(1-methyl-1H-pyrazol-4-yl)imidazo[1,2-c]pyrimidin-3-yl)amino)ethyl)carbamate]",1.16,> 10 µM
"Cn1cc(-c2ccc3c(N4CCC(C(=O)NCc5ccccc5)CC4)cnn3c2)cn1 [Compound 146, N-benzyl-1-(6-(1-methyl-1H-pyrazol-4-yl)pyrazolo[1,5-a]pyridin-3-yl)piperidine-4-carboxamide]",4.45,5.69 µM
"CC(C)(C)OC(=O)N1CCN(c2cnn3cc(-c4cn(CCCN5CCOCC5)cn4)ccc23)CC1 [Compound 231, tert-butyl 4-(6-(1-(3-morpholinopropyl)-1H-imidazol-4-yl)pyrazolo[1,5-a]pyridin-3-yl)piperazine-1-carboxylate]",9.34,0.395 µM
"CN1CCC(c2ccc3c(N4CCN(C(=O)OC(C)(C)C)CC4)cnn3c2)CC1 [Compound 225, tert-butyl 4-(6-(1-methylpiperidin-4-yl)pyrazolo[1,5-a]pyridin-3-yl)piperazine-1-carboxylate]",1.55,> 10 µM
"Cn1cc(-c2ccc3c(N4CCN(C(=O)OC(C)(C)C)CC4=O)cnn3c2)cn1 [Compound 28, tert-butyl 4-[6-(1-methyl-1H-pyrazol-4-yl)pyrazolo[1,5-a]pyridine-3-yl]-3-oxopiperazine-1-carboxylate]",1.84,> 10 µM
"Cc1cn(-c2ccn3c(N4CCCN(C(=O)OC(C)(C)C)CC4)cnc3n2)cn1 [Compound 111, tert-butyl 4-(7-(4-methyl-1H-imidazol-1-yl)imidazo[1,2-a]pyrimidin-3-yl)-1,4-diazepane-1-carboxylate]",0.60,> 10 µM
"Cn1cc(-c2ccc3c(N4CCN(c5ncc(Cc6ccsc6)cn5)CC4)cnn3c2)cn1 [Compound 302, 6-(1-methyl-1H-pyrazol-4-yl)-3-(4-(5-(thiophen-3-ylmethyl)pyrimidin-2-yl)piperazin-1-yl)pyrazolo[1,5-a]pyridine]",8.86,0.137 µM
"Cn1cc(-c2ccc3c(N4CCN(c5ncc(C(=O)C(F)(F)F)cn5)CC4)cnn3c2)cn1 [Compound 284, 2,2,2-trifluoro-1-(2-(4-(6-(1-methyl-1H-pyrazol-4-yl)pyrazolo[1,5-a]pyridin-3-yl)piperazin-1-yl)pyrimidin-5-yl)ethan-1-one]",6.21,> 10 µM
"CC(C)(C)OC(=O)N1CCN(c2cnn3cc(-c4cncn4CCO)ccc23)CC1 [Compound 230, tert-butyl 4-(6-(1-(2-hydroxyethyl)-1H-imidazol-5-yl)pyrazolo[1,5-a]pyridin-3-yl)piperazine-1-carboxylate]",0.97,> 10 µM
"Cn1cc(-c2ccc3c(C4CCC(C(=O)OCc5ccccc5)CC4)cnn3c2)cn1 (stereo not shown) [Compound 136, benzyl 4-(6-(1-methyl-1H-pyrazol-4-yl)pyrazolo[1,5-a]pyridin-3-yl)cyclohexane-1-carboxylate]",3.64,> 10 µM
CCCCCc1cnc(N2CCN(c3cnn4cc(-c5cnn(C)c5)ccc34)CC2)nc1 [Compound 190],6.05,0.543 µM
"Cn1cc(-c2ccc3c(N4CCN(C(=O)OC5CCOCC5)CC4)cnn3c2)cn1 [Compound 39, tetrahydro-2H-pyran-4-yl 4-[6-(1-methyl-1H-pyrazol-4-yl)pyrazolo[1,5-a]pyridin-3-yl]piperazine-1-carboxylate]",1.78,> 10 µM
"C[C@@H](OC(=O)N1CCCN(c2cnc3nc(-c4cnn(C)c4)ccn23)CC1)c1ccccc1 [Compound 117, (R)-1-phenylethyl 4-(7-(1-methyl-1H-pyrazol-4-yl)imidazo[1,2-a]pyrimidin-3-yl)-1,4-diazepane-1-carboxylate]",1.39,> 10 µM
"CC(C)(C)OC(=O)N1CCN(c2cnn3cc(CCCO)ccc23)CC1 [Compound 204, tert-butyl 4-(6-(3-hydroxypropyl)pyrazolo[1,5-a]pyridin-3-yl)piperazine-1-carboxylate]",1.20,> 10 µM
"Cn1cc(-c2ccc3c(C4=CCC(C(=O)OCc5ccccc5)CC4)cnn3c2)cn1 (stereo not shown) [Compound 132, benzyl 4-(6-(1-methyl-1H-pyrazol-4-yl)pyrazolo[1,5-a]pyridin-3-yl)cyclohex-3-ene-1-carboxylate]",5.85,0.744 µM
"Cn1cc(-c2ccc3c(N4CCN(C(=O)OC5CC(F)(F)C5)CC4)cnn3c2)cn1 [Compound 307, 3,3-difluorocyclobutyl 4-[6-(1-methyl-1H-pyrazol-4-yl)pyrazolo[1,5-a]pyridin-3-yl]piperazine-1-carboxylate]",4.20,2.15 µM
"CCCc1ccc2c(N3CCN(C(=O)OC(C)(C)C)CC3)cnn2c1 [Compound 203, tert-butyl 4-(6-propylpyrazolo[1,5-a]pyridin-3-yl)piperazine-1-carboxylate]",1.35,> 10 µM
"CC(C)(C)OC(=O)N1CCN(c2cnn3cc(C4CCOCC4)ccc23)CC1 [Compound 224, tert-butyl-4-(6-(tetrahydro-2H-pyran-4-yl)pyrazolo[1,5-a]pyridin-3-yl)piperazine-1-carboxylate]",0.66,> 10 µM
CN(CCN(C)c1cnc2nc(C3CCOC3)ccn12)C(=O)OC(C)(C)C (stereo not shown) [Compound 98],0.98,> 10 µM
